Each structure is given as a SMILES string. “And” between values parts separate entries of the source, which are not always exact repeats. Equal values may be shown once.

This experiment deals with T1, Steroid 17-alpha-hydroxylase/17,20 lyase (Rattus norvegicus, UniProt P11715).
T1 sequence (P11715 whole entry): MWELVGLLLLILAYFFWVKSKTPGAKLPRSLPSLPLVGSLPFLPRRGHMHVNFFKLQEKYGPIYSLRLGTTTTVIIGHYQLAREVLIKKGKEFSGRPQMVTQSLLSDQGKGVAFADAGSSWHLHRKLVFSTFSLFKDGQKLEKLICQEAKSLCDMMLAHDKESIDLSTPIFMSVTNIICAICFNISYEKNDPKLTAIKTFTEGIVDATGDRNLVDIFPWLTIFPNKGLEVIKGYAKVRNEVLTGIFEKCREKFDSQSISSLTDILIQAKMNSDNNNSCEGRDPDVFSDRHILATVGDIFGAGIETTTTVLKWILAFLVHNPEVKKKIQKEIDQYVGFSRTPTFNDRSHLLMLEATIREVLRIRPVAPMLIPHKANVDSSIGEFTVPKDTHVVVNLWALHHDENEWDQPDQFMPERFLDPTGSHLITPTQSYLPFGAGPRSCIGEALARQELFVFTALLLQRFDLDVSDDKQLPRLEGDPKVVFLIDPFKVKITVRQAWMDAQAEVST
Consider `CCC1CCC(OC(=O)Cc2ccncc2)CC1` (stereo unspecified), for which the IC50 is 2.7 µM and 2 µM.

Turning to `CC(C)OC(=O)Cc1ccncc1`, the IC50 was greater than 100 µM. The same measure for `CC(C)(C)C1CCC(OC(=O)Cc2ccncc2)CC1` (stereo unspecified): 3 µM and 2.1 µM; for `CC(C)(C(=O)OC1CCCCC1)c1ccncc1`: 4.5 µM and 3.6 µM. With `O=C(Cc1ccncc1)OC12CC3CC(CC(C3)C1)C2`, the IC50 was 0.61 µM and 0.56 µM.

As for `CC(C)CC(C)OC(=O)Cc1ccncc1` (stereo unspecified), the IC50 is 17 µM and 13 µM. For `CC1CCC(OC(=O)Cc2ccncc2)C1` (stereo unspecified), the IC50 is 32 µM and 28 µM. Regarding `CC1(OC(=O)Cc2ccncc2)CCCCC1`, the IC50 is 11 µM and 10 µM. As to `O=C(Cc1ccncc1)OC1CCCC1`, the concentration for half-maximal inhibition (IC50) is 131 µM and 77 µM. As to `O=C(Cc1ccncc1)Oc1ccccc1`, the IC50 is greater than 100 µM. `CC(C)CCOC(=O)Cc1ccncc1`: the IC50 is greater than 100 µM. `CC1(C)C2CCC1(C)C(OC(=O)Cc1ccncc1)C2` (single isomer, unassigned; (-)): the IC50 was 2.2 µM and 1.5 µM. Then `CC1CCC(OC(=O)Cc2ccncc2)CC1` (stereo in doubt; 6), with 36 µM and 25 µM; and `CC1CCC(C(C)C)C(OC(=O)Cc2ccncc2)C1` (stereo in doubt; 12), with 5.1 µM and 4.5 µM.

As for `CC1CCC(C(C)C)C(OC(=O)Cc2ccncc2)C1` (stereo in doubt; 13), the IC50 was 15 µM and 12 µM.

On to `O=C(Cc1ccncc1)OC1=CC2CCC1C2` (stereo in doubt; 14), for which the IC50 is 41 µM and 31 µM. Regarding `O=C(Cc1ccncc1)OC1=CC2CCC1C2` (stereo in doubt; 15), the 50% inhibitory concentration (IC50) is 46 µM and 45 µM. Consider `CC1(C)C2CCC1(C)C(OC(=O)Cc1ccncc1)C2` (stereo in doubt; 17), for which the IC50 is 0.54 µM and 0.59 µM.

In the case of `CC1C(OC(=O)Cc2ccncc2)CC2CC1C2(C)C` (stereo in doubt; 18), the IC50 was 0.28 µM and 0.26 µM. With `CC1C(OC(=O)Cc2ccncc2)CC2CC1C2(C)C` (stereo in doubt; 19), the concentration for half-maximal inhibition (IC50) is 1.8 µM and 1.7 µM. The same measure for `CC1CCC(OC(=O)Cc2ccncc2)CC1` (trans isomer): 4.4 µM and 4.2 µM.

(Values after ChEMBL document CHEMBL1125012, “Inhibition of enzymes of estrogen and androgen biosynthesis by esters of 4-pyridylacetic acid” (J Med Chem, 1990).)
